Here are results for eight compounds from patent US10781229B2, “Tris- or neopentyl glycol-based amphiphiles and uses thereof” (Industry-University Cooperation Foundation Hanyang …, priority 2015, dated 2020).

In series [1] the target is LeuT E192C^TMR (Aquifex aeolicus, UniProt O67854, E192C). Kind of series: Site-directed fluorescence (iodide) quenching of LeuT E192C-TMR, Stern-Volmer analysis. The series is classed as biochemical. The source says: A principle of this experiment is as follows: A cysteine residue was inserted into a 192th LeuT site (E192C), followed by coupling with a thiol-reactive fluorophore (tetramethylrhodamine-5-maleimide, TMR). The prepared LeuT E192C^TMR, as TMR-coupled LeuT, is an excellent system to sensitively monitor protein structure change in response to ligand coupling. […] Due to such change, TMR fluorescence molecules exposed to an aqueous solution become closer to iodide (I^−), as a quencher dissolved in water, whereby strong fluorescence quenching is caused. TMR quenching intensity by leucine coupling may be represented by Stern-Volmer plotting and thus structural flexibility of a protein may be directly measured. Ligand bindability of the TMR-labeled transporter was measured using SPA while increasing the amount of [^3H]leucine.
In particular, structure, expression, purification, and fluorescence labeling were performed according to the following methods. In accordance with a method disclosed in a paper published by C. B. Billesbolle, et al. (J. Biol. Chem. 2015, 290, 26725-26738), a leucine transporter mutant (LeuT E192C^TMR) was produced and purification and labeling were carried out. In summary, a residue of the E192 was mutated with cysteine using QuikChange (Agilent Technologies) such that fluorescence coupling was accomplished by maleimide labeling. The LeuT mutant was expressed in E. coli C41 (DE3). A membrane of DE3 was disrupted and LeuT was solubilized with 1% (w/v) DDM. Subsequently, LeuT solubilized with the amphipathic molecule was fixed to a Chelating Sepharose Fast Flow resin (GE Healthcare, Little Chalfont, UK), followed by washing with tetramethylrhodamine-5-maleimide (TMR, Life Technologies, Carlsbad, Calif., USA) at 4° C. for 16 hours. Subsequently, LeuT was eluted with a buffer containing 300 mM imidazole, 20 mM Tris-HCl (pH 8.0), 1 mM NaCl, 199 mM KCl, and 0.05% DDM.
Fluorescence spectroscopy was carried out according to the following method. A fluorescence-based experiment was carried out by diluting 0.5 μg ml^−1 of fluorescence-labeled LeuT with buffer A supplemented with CMC+0.04% by weight of DDM, MNG-3 or NDT-C11. Leucine was separately added to specimen aliquots of LeuT for each concentration and incubated for one hour in a room temperature shaker. Steady-state fluorescence intensities were recorded with a FluoroMax4 (Horiba Scientific, Edison, N.J., USA) at λem=572 nm and excitation source at λex=552 nm at 25° C. Quencher-titration was carried out by successive additions of small specimen aliquots containing 1 M KI into buffer A supplemented with 10 mM Na2S2O3. Fluorescence intensities (F) were corrected for sample dilution and normalized to the initial intensity (F0) of a sample. All data was analyzed by linear-(Stern-Volmer plot) or nonlinear regression in GraphPad Prism 6.0 (GraphPad Software). The degree of iodide (I^−) accessibility was obtained from the following Stern-Volmer equation: F0/F=1+Ksv×[Q], where F0/F is normalized fluorescence quenching, Ksv is a Stern-Volmer constant, and [Q] is quencher concentration. When means are calculated as a log, the means are shown as pIC50 and the [s.e.m. interval] from pIC50±s.e.m.
Values of radioligand binding constants were calculated through SPA saturation binding experiments. Values of iodide quenching-response constants and ΔKSV were calculated from a site-directed fluorescence quenching spectroscopy. The affinity (Kd) is shown as means±s.e.m and ΔKSV is shown as means [s.e.m. interval]. All data is shown as means of three to four independent experiments.

Series [2] is described as follows: Hydrodynamic radius and size distribution of micelles by dynamic light scattering (DLS). The format is physicochemical. As for the experimental part:
A method of measuring the radius of a micelle is not specifically limited and may be any method generally known in the art. For example, the radius may be measured by a dynamic light scattering (DLS) experiment.
In particular, critical micellar concentrations (CMCs) were measured using hydrophobic fluorescence staining and diphenylhexatriene (DPH), and hydrodynamic radii (Rh) of micelles formed of each material were measured by a dynamic light scattering (DLS) experiment. Measured results are compared to values of DDM as an existing amphipathic molecule (detergent).
Meanwhile, size distributions of the micelles formed of TDTs and NDTs were measured using DLS. Results are illustrated in FIG. 5. TDTs or NDTs were respectively used in an amount of 0.5% by weight. As a result, micelles of TDTs or NDTs were measured as forming a single community.

For series [3], the system named is leucine transporter (LeuT). Kind of series: LeuT stability by [3H]-Leu scintillation proximity assay (SPA). The format is biochemical, Aquifex aeolicus. Conditions: CMC+0.2% by weight, room temperature. The protocol:
Experiments to measure the structural stability of a leucine transporter (LeuT) protein by TDTs or NDTs were conducted. LeuT protein activity was measured by scintillation proximity assay (SPA) utilizing [^3H]-Leu as a ligand. The concentration of TDTs, NDTs, or DDM was (a) CMC+0.04% by weight, or (b) CMC+[…].
In particular, the LeuT stability measurement experiments were conducted according to the following methods. Depending upon the results of UapA and MelB, only TDT-C11, TDT-C12, NDT-C10, NDT-C11 and NDT-C12 among the amphipathic molecules according to the present invention were selectively used. In accordance with a method disclosed in a paper published by G. Deckert, et al. (Nature 1998, 392, 353-358), a wild-type leucine transporter (LeuT) was purified from Aquifex aeolicus. LeuT is expressed in E. coli C41 (DE3) transformed with pET16b encoding a C-terminal 8×His-tagged transporter (the expression plasmid was provided by Dr E. Gouaux, Vollum Institute, Portland, Oreg., USA). In summary, the […] protein was isolated and solubilized with 1.0% by weight of DDM, followed by binding the protein to a Ni^2+-NTA resin (Life Technologies, Denmark) and eluting the same with 20 mM Tris-HCl (pH 8.0), 1 mM NaCl, 199 mM KCl, 0.05% DDM, and 300 mM imidazole. Next, about 1.5 mg/ml of a protein stock was 10-fold diluted with a buffer in which DDM and imidazole are absent, but TDTs, NDTs, or DDM (control) is supplemented such that a final concentration becomes CMC+0.04% by weight or CMC+0.2% by weight. Protein samples were stored at room temperature and centrifuged at a predetermined time. To evaluate protein activity, [^3H]-Leu coupling was measured using scintillation proximity assay (SPA) (M. Quick et al., Proc. Natl, Acad. Sci. U.S.A. 2007, 104, 3603-3608). 5 μL of each protein sample dissolved in a buffer that contained 200 mM NaCl and each test compound was analyzed. SPA reaction was carried out in the presence of 20 nM [^3H]-Leu and copper chelate (His-Tag) YSi beads (both purchased from PerkinElmer, Denmark). [^3H]-Leu coupling was measured by means of a MicroBeta liquid scintillation counter (PerkinElmer).
For orientation: Scintillation proximity formats need no separation of bound from free tracer.

Series [4] deals with T1, melibiose permease (MelB), MelBSt (Salmonella typhimurium, UniProt P30878).
T1 construct: made in house; host or cells: 'Salmonella typhimurium DW2 cell (melB and lacZY)', plasmid pK95AHB/WT MelBSt/CH10
T1 sequence (P30878 whole entry): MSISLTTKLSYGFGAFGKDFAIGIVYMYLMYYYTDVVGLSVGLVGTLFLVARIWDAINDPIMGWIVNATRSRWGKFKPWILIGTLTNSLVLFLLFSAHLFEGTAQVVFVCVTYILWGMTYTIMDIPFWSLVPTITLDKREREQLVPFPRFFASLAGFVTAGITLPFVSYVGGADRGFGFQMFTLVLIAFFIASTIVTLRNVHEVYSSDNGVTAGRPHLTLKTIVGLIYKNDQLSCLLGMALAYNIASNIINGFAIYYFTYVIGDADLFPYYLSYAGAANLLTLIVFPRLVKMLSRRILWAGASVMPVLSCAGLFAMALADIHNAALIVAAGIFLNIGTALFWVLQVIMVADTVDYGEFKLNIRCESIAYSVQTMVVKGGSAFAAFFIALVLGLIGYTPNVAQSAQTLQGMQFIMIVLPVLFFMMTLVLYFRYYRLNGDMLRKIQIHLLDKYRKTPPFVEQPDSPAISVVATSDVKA
Kind of series: MelB extraction efficiency and stability by SDS-PAGE and western immunoblotting. The settings on record: 1.5% by weight; for MelB protein solubilization effect versus temperature: 0 to 45° C. and above; for MelB protein extraction efficiency from membrane: 0° C. The protocol:
Experiments to measure the extraction efficiency and structural stability of a Salmonella typhimurium melibiose permease (MelB) protein by TDTs or NDTs were conducted. The MelB protein was extracted using TDTs, NDTs, or DDM and then the amounts and structures of extracted proteins were quantitatively analyzed by SDS-PAGE and western immunoblotting. The concentrations of the used amphipathic molecules were 1.5% by weight. Protein extraction was carried out at four temperatures (0, 45, 55 or 65° C.) for 90 minutes to simultaneously evaluate the protein extraction efficiency and stabilization ability of the amphipathic molecules.
In particular, in accordance with a method disclosed in a paper (P. S. Chae, et al., Chemistry. 2013, 19, 15645-15651) published by the present inventors, a protein (MelBSt) was produced using a pK95AHB/WT MelBSt/CH10 plasmid and a Salmonella typhimurium DW2 cell (melB and lacZY) to encode wild-type MelB having a 10-His tag at a C-terminal. In accordance with a method disclosed in a paper (Nat. Commun. 2014, 5, 3009) published by A. S. Ethayathulla, et al., cell proliferation and membrane preparation was carried out. Protein analysis was performed using a Micro BCA kit (Thermo Scientific, Rockford, Ill.). So as to measure the solubilization/stability of MelBSt, a membrane sample including MelBSt (final protein concentration of 10 mg/mL) was mixed with a solubilization buffer (20 mM sodium phosphate, pH 7.5, 200 mM NaCl, 10% glycerol, and 20 mM melibiose) and 1.5% (w/v) DDM, TDTs or NDTs. An extracted product was incubated at four temperatures (0, 45, 55 and 65° C.) for 90 minutes. Ultracentrifugation was carried out for 45 minutes at 4° C. and 355,590 g by means of a Beckman Optima™ MAX ultracentrifuge and a TLA-100 rotor. Subsequently, 20 μg of a protein was separated by SDS-16% PAGE and then subjected to immunoblotting with a Penta-His-HRP antibody (Qiagen, Germantown, Md.).

Consider `CCCCCCCCCCC(CCCCCCCCCC)(CO[C@@H]1O[C@H](CO)[C@@H](O[C@H]2O[C@H](CO)[C@@H](O)[C@H](O)[C@H]2O)[C@H](O)[C@H]1O)CO[C@@H]1O[C@H](CO)[C@@H](O[C@H]2O[C@H](CO)[C@@H](O)[C@H](O)[C@H]2O)[C@H](O)[C@H]1O` [MNG-3], for which the “Structural fluidity of the LeuT protein” value in series [1] (conclusion from ΔKsv) is recorded as “tends to greatly limit the structural fluidity”. In series [1] (leucine-induced change of iodide accessibility of TMR, CMC+0.04% by weight detergent, means [s.e.m. interval]), the “Δ KSV” value turned out to be 0.4 M⁻¹.
For `CCCCCCCCCC(CCCCCCCCC)COCC(CO[C@@H]1OC(CO)[C@@H](O)C(O)C1O)(CO[C@@H]1OC(CO)[C@@H](O)C(O)C1O)CO[C@@H]1OC(CO)[C@@H](O)C(O)C1O` (stereo partly shown) [NDT-C9], in series [2], the “Rh (hydrodynamic radius of micelles)” value was 3.1 ± 0.1 nm.
With `CCCCCCCCCCC(CCCCCCCCCC)COCC(CO[C@@H]1OC(CO)[C@@H](O)C(O)C1O)(CO[C@@H]1OC(CO)[C@@H](O)C(O)C1O)CO[C@@H]1OC(CO)[C@@H](O)C(O)C1O` (stereo partly shown) [NDT-C10], the “LeuT protein stabilization ability ([3H]-Leu binding)” value in series [3] is “excellent”. Also, the “Rh (hydrodynamic radius of micelles)” value in series [2] is recorded as 3.2 ± 0.1 nm.
On to `CCCCCCCCCCCCC(CCCCCCCCCCCC)COCC(CO[C@@H]1OC(CO)[C@@H](O)C(O)C1O)(CO[C@@H]1OC(CO)[C@@H](O)C(O)C1O)CO[C@@H]1OC(CO)[C@@H](O)C(O)C1O` (stereo partly shown) [NDT-C12], for which the “MelB protein solubilization effect versus temperature” value in series [4] was “increase with elevating temperature”. Further, the “MelB protein extraction efficiency from membrane” value in series [4] (90 minutes) was “Slightly decreased solubilization effects”. The “LeuT protein stabilization ability ([3H]-Leu binding)” value in series [3] was “excellent”. Also, the “Rh (hydrodynamic radius of micelles)” value in series [2] worked out at 3.8 ± 0.4 nm.
In the case of `CCCCCCCCCC(CCCCCCCCC)C(=O)NC(CO[C@@H]1OC(CO)[C@@H](O)C(O)C1O)(CO[C@@H]1OC(CO)[C@@H](O)C(O)C1O)CO[C@@H]1OC(CO)[C@@H](O)C(O)C1O` (stereo partly shown) [TDT-C9], the “Rh (hydrodynamic radius of micelles)” value in series [2] is given as 3.4 ± 0.4 nm.
The same measure, in the same setting: with `CCCCCCCCCCC(CCCCCCCCCC)C(=O)NC(CO[C@@H]1OC(CO)[C@@H](O)C(O)C1O)(CO[C@@H]1OC(CO)[C@@H](O)C(O)C1O)CO[C@@H]1OC(CO)[C@@H](O)C(O)C1O` (stereo partly shown) [TDT-C10] the figure was 4.5 ± 0.2 nm.
For `CCCCCCCCCCCC(CCCCCCCCCCC)C(=O)NC(CO[C@@H]1OC(CO)[C@@H](O)C(O)C1O)(CO[C@@H]1OC(CO)[C@@H](O)C(O)C1O)CO[C@@H]1OC(CO)[C@@H](O)C(O)C1O` (stereo partly shown) [TDT-C11], the “Amount of MelB protein dissolved” value in series [4] (55° C., 90 minutes) is on record as 65%. Besides, the “Rh (hydrodynamic radius of micelles)” value in series [2] is reported as 37 ± 8.0 nm.
In the case of `CCCCCCCCCCCCC(CCCCCCCCCCCC)C(=O)NC(CO[C@@H]1OC(CO)[C@@H](O)C(O)C1O)(CO[C@@H]1OC(CO)[C@@H](O)C(O)C1O)CO[C@@H]1OC(CO)[C@@H](O)C(O)C1O` (stereo partly shown) [TDT-C12], the “MelB protein solubilization effect versus temperature” value in series [4] was “increase with elevating temperature”. In series [4] (90 minutes), the “MelB protein extraction efficiency from membrane” value is listed as “Slightly decreased solubilization effects”. Also, the “Rh (hydrodynamic radius of micelles)” value in series [2] is recorded as 53 ± 1.2 nm.
